One assay concerns measles virus polymerase. The conditions noted are these: equivalent measles virus RdRP assay; cited from earlier work.
The subject of a further assay is recRSV-mKate. Kind of assay: microbe, parasite or virus in culture. The conditions noted are these: human respiratory syncytial virus, read-out: EC50, apical RSV shedding. In kind it is cell-based.

With `Cn1nc(C(F)(F)F)cc1C(=O)Nc1ccc(S(=O)(=O)N2CCCC[C@H]2CCN2CCOCC2)cc1` [ERDRP-0519], the phosphodiester bond formation entry in the assay on measles virus polymerase is on record as “completely blocks all phosphodiesterbond formation”.

As a reminder, the EC50 is the concentration giving half of the maximal effect. Consider `O=c1nc(NO)ccn1[C@@H]1O[C@H](CO)[C@@H](O)[C@H]1O` [NHC, N^4-hydroxycytidine], for which the EC50 with recRSV-mKate worked out at 50 nM.
